Molecules are shown by their SMILES. pIC50: −log10 of the molar value.

The test system of this assay is TT (RET C634W) cells. As to the kind of experiment: Cell proliferation assay (MTS), TT cells. Type of assay: cell-based. Conditions: Homo sapiens, TT, 72 h, 72 h incubation, MTS readout. The protocol:
MTS testing kit was purchased from Promega. The RPMI-1640, F12, F12K, Fetal bovine serum and Penicillin-Streptomycin were purchased from BI. Glutamine and Dimethyl sulfoxide (DMSO) were purchased from Sigma. TT cells were cultured in F12K supplemented with 10% FBS and LC-2/ad cells were cultured in HamF12: RPMI1640 (1:1) supplemented with 10% FBS and 2 mM Glutamine.
To investigate whether a compound is able to inhibit the activity of RET fusion and/or mutation in cells, a mechanism-based assay using TT (RET C634W) and LC-2/ad (CCDCl6-RET) cell lines was developed. In this assay, the inhibition of RET fusion and/or mutation was reflected by the inhibition of cell proliferation of TT and LC-2/ad cells. Cells were plated into 96-well plates at the optimized cell density (TT: 5000 cells/well; LC-2/ad: 5000 cells/well). Plates were incubated at 37° C., with 5% CO2 for 24 h. Compounds were serially diluted and added to the plates with the final concentrations as 10000, 3333.3, 1111.1, […], 123.5, 41.2, 13.7, 4.6 and 1.5 nM. Plates were incubated at 37° C., with 5% CO2 for 72 h. An aliquot of 20 μL MTS/100 μL medium mixture solution were added to each well and the plates were incubated for exactly 2 h. The reaction was stopped by adding 25 μL 10% SDS to each well. The absorbance was measured by a microplate reader at 490 nm and 650 nm (reference wavelength). IC50 was calculated using GraphPad Prism 5.0.
In turn, `Cn1cc(-c2cc(-c3ccc(N4CCN(Cc5cc(F)ccc5F)CC4)nc3)n3c(C#N)cnc3c2)cn1` [Example 8, 5-(6-(4-(2,5-difluorobenzyl)piperazin-1-yl)pyridin-3-yl)-7-(1-methyl-1H-pyrazol-4-yl)imidazo[1,2-a]pyridine-3-carbonitrile] had a pIC50 of 7.41.
Turning to `Cc1cccnc1CN1CCN(c2ccc(-c3cc(-c4cnn(C)c4)cc4ncc(C#N)n34)cn2)CC1` [Example 9, 7-(1-methyl-1H-pyrazol-4-yl)-5-(6-(4-((3-methylpyridin-2-yl)methyl)pi-perazin-1-yl)pyridin-3-yl)imidazo[1,2-a]pyridine-3-carbonitrile], the negative logarithm of the IC50 (pIC50) was 7.10.
With `C[C@@H](C(=O)N1CCN(c2ccc(-c3cc(-c4cnn(C)c4)cc4ncc(C#N)n34)cn2)CC1)c1ccccc1` [Example 10, (R)-7-(1-methyl-1H-pyrazol-4-yl)-5-(6-(4-(2-phenylpropanoyl)piperazin-1-yl)pyridin-3-yl)imidazo[1,2-a]pyri-dine-3-carbonitrile] the figure was 8.22; with `COc1ccc(CN2CCN(c3ccc(-c4nc(-c5cnn(C)c5)cc5ncc(C#N)n45)cn3)CC2)nc1` [Example 24, 5-(6-(4-((5-methoxypyridin-2-yl)meth-yl)piperazin-1-yl)pyridin-3-yl)-7-(1-methyl-1H-pyrazol-4-yl)imidazo[1,2-c]pyrimidine-3-carbonitrile], 7.07.
With `Cn1cc(-c2cc3ncc(C#N)n3c(-c3ccc(N4CCN(Cc5ccccc5)CC4)nc3)n2)cn1` [Example 25, 5-(6-(4-benzylpiperazin-1-yl)pyridin-3-yl)-7-(1-methyl-1H-pyrazol-4-yl) imidazo[1,2-c]pyrimidine-3-carbonitrile] the figure was 7.10.
In the case of `CN(C)c1ccc(CN2CCN(c3ccc(-c4cc(-c5cnn(C)c5)cc5ncc(C#N)n45)cn3)CC2)cn1` [Example 28, 5-(6-(4-((6-(dimethylamino)pyridin-3-yl)methyl)piperazin-1-yl)pyridin-3-yl)-7-(1-methyl-1H-pyrazol-4-yl)im-idazo[1,2-a]pyridine-3-carbonitrile], the pIC50 is 7.10.
To `COc1ccccc1CN1CCN(c2ccc(-c3cc(-c4cnn(C)c4)cc4ncc(C#N)n34)cn2)CC1` [Example 29, 5-(6-(4-(2-methoxybenzyl)piperazin-1-yl)pyridin-3-yl)-7-(1-methyl-1H-pyrazol-4-yl)imidazo[1,2-a]pyridine-3-carbonitrile] belongs 7.08; to `Cn1cc(-c2cc(-c3ccc(N4CCN(Cc5c(F)cccc5F)CC4)nc3)n3c(C#N)cnc3c2)cn1` [Example 35, 5-(6-(4-(2,6-difluorobenzyl)piperazin-1-yl)pyridin-3-yl)-7-(1-methyl-1H-pyrazol-4-yl)imidazo[1,2-a]pyridine-3-carbonitrile], 9.00; to `Cn1cc(-c2cc(-c3ccc(N4CCN(Cc5ccc6ncn(C)c6c5)CC4)nc3)n3c(C#N)cnc3c2)cn1` [Example 36, 5-(6-(4-((1-methyl-1H-benzo[d]imid-azol-6-yl)methyl)piperazin-1-yl)pyri-din-3-yl)-7-(1-methyl-1H-pyrazol-4-yl)imidazo[1,2-a]pyridine-3-carboni-trile], 7.21.
With `CN(C)[C@@H](C(=O)N1CCN(c2ccc(-c3cc(-c4cnn(C)c4)cc4ncc(C#N)n34)cn2)CC1)c1cccc(Cl)c1` [Example 39, (R)-5-(6-(4-(2-(3-chlorophenyl)-2-(dimethylamino)acetyl)piperazin-1-yl)pyridin-3-yl)-7-(1-methyl-1H-pyrazol-4-yl)imidazo[1,2-a]pyridine-3-car-bonitrile] the figure was 7.41.
To `CN(C)C(C(=O)N1CCN(c2ccc(-c3cc(-c4cnn(C)c4)cc4ncc(C#N)n34)cn2)CC1)c1ccc(F)c(Cl)c1` (centres unmarked) [Example 41, 5-(6-(4-(2-(3-chloro-4-fluorophenyl)-2-(dimethylamino)acetyl)piperazin-1-yl)pyridin-3-yl)-7-(1-methyl-1H-pyrazol-4-yl)imidazo[1,2-a]pyridine-3-carbonitrile] belongs 7.92.
As for `Cc1ccc(CC(=O)N2CCN(c3ccc(-c4cc(-c5cnn(C)c5)cc5ncc(C#N)n45)cn3)CC2)nc1` [Example 47, 7-(1-methyl-1H-pyrazol-4-yl)-5-(6-(4-(2-(5-methylpyridin-2-yl)acetyl)pi-perazin-1-yl)pyridin-3-yl)imidazo[1,2-a]pyridine-3-carbonitrile], the negative-log IC50 (pIC50) was 7.06.
Compound `COc1ccc(CN2C3CC2CN(c2ccc(-c4cc(OCCN=S(C)(C)=O)cc5ncc(C#N)n45)cn2)C3)cn1` [Example 58, 7-(2-((Dimethyl(oxo)-λ^6-sulfanylidene)amino)ethoxy)-5-(6-(6-((6-methoxypyridin-3-yl)methyl)-3,6-diazabicyclo[3.1.1]heptan-3-yl)pyridin-3-yl)imidazo[1,2-a]pyridine-3-carbonitrile] gave a pIC50 of 6.92.
`[2H]C([2H])([2H])Oc1ccc(OC2CCN(c3ccc(-c4cc(OCC(C)(C)O)cc5ncc(C#N)n45)cn3)CC2)cn1` [Example 61, 7-(2-Hydroxy-2-methylpropoxy)-5-(6-(4-((6-(methoxy-d3)pyridin-3-yl)oxy)piperidin-1-yl)pyridin-3-yl)imidazo[1,2-a]pyridine-3-carbonitrile]: the pIC50 was 7.82.
To `COc1ccc(OC2CCN(c3ccc(-c4cc(OCCN=S(C)(C)=O)cc5ncc(C#N)n45)cn3)CC2)cn1` [Example 70, 7-(2-((dimethyl(oxo)-λ^6-sulfanylidene)ami-no)ethoxy)-5-(6-(4-((6-methoxypyridin-3-yl)oxy)piperidin-1-yl)pyridin-3-yl)imid-azo[1,2-a]pyridine-3-carbonitrile] belongs 7.15; to `Cc1ccc(OC2CCN(c3ccc(-c4cc(OCC(C)(C)O)cc5ncc(C#N)n45)cn3)CC2)cn1` [Example 71, 7-(2-hydroxy-2-methylpropoxy)-5-(6-(4-((6-methylpyridin-3-yl)oxy)piperidin-1-yl)pyridin-3-yl)imidazo[1,2-a]pyridine-3-carbonitrile], 7.66; to `CC(C)(O)COc1cc(-c2ccc(N3CCC(Oc4ccc(C5CC5)nc4)CC3)nc2)n2c(C#N)cnc2c1` [Example 72, 5-(6-(4-((6-cyclopropylpyridin-3-yl)oxy)piperidin-1-yl)pyridin-3-yl)-7-(2-hydroxy-2-methylpropoxy)imidazo[1,2-a]pyridine-3-carbonitrile], 7.77.
To `CCc1ccc(OC2CCN(c3ccc(-c4cc(OCC(C)(C)O)cc5ncc(C#N)n45)cn3)CC2)cn1` [Example 73, 5-(6-(4-((6-ethylpyridin-3-yl)oxy)piperidin-1-yl)pyridin-3-yl)-7-(2-hydroxy-2-meth-ylpropoxy)imidazo[1,2-a]pyridine-3-car-bonitrile] belongs 9.00; to `Cc1ccc(OC2CCN(c3ccc(-c4cc(OCC5(O)CC5)cc5ncc(C#N)n45)cn3)CC2)cn1` [Example 74, 7-((1-hydroxycyclopropyl)methoxy)-5-(6-(4-((6-methylpyridin-3-yl)oxy)piperidin-1-yl)pyridin-3-yl)imidazo[1,2-a]pyridine-3-carbonitrile], 7.64; to `CCc1ccc(OC2CCN(c3ccc(-c4cc(OCC5(O)CC5)cc5ncc(C#N)n45)cn3)CC2)cn1` [Example 75, 5-(6-(4-((6-ethylpyridin-3-yl)oxy)piperidin-1-yl)pyridin-3-yl)-7-((1-hydroxycyclo-propyl)methoxy)imidazo[1,2-a]pyridine-3-carbonitrile], 9.00.
